Where a name gives a salt, the structure may show the parent alone.
Target: T1, human 5-HT4(a) (Homo sapiens, UniProt Q13639)
T1 construct: host or cells: GeneBlAzer HTR4-CRE-bla CHO-K1 cells
Assay: Evaluation of agonistic activity in CHO-K1 cells expressing human 5-HT4(a) (GeneBlAzer HTR4-CRE-bla CHO-K1, beta-lactamase reporter)
Assay type: cell-based
Details: CHO-K1 cells stably expressing human 5-HT4(a)
How it was run: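 Agonism read as CRE-driven β-lactamase activity: emission ratio 465/535 nm (excitation 410 nm) after 2 h substrate loading. Preceded by 5 h compound treatment, 8 concentrations, 1% DMSO in the added solution, of overnight-plated reporter CHO-K1 cells; EC50 by non-linear regression.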

T1 sequence (Q13639 1-387 isoform Q13639-2): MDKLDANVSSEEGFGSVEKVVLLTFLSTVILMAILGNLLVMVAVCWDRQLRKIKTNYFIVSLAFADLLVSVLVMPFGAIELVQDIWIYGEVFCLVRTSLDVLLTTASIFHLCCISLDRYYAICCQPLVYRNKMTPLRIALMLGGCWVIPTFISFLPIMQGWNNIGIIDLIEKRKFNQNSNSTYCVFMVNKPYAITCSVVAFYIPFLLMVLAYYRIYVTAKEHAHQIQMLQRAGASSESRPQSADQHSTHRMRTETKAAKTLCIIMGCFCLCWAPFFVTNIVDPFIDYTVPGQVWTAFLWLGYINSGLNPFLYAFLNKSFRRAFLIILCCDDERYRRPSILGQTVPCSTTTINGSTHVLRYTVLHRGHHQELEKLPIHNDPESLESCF

First: CCCc1cc(N2CCC(NC(C)=O)C2)nc(Nc2cccc([N+](=O)[O-])c2)n1 (centres unmarked) [Example 295, N-{1-[2-(3-nitrophenylamino)-6-propylpyrimidin-4-yl]pyrrolidin-3-yl}acetamide]
Second: CCCc1cc(N2CCC(NC(C)=O)C2)nc(Nc2cccc(Cl)c2)n1 (centres unmarked) [Example 302]
The EC50 of the first is 8.8-fold lower: 0.048 nM for the first, 0.42 nM for the second. The first is the more potent here.

`CCCc1cc(N2CCC(NC(C)=O)C2)nc(Nc2ccc(F)c([N+](=O)[O-])c2)n1` (centres unmarked) [Example 296] and `CCCc1cc(N2CCC(NC(C)=O)C2)nc(Nc2ccc(Cl)c([N+](=O)[O-])c2)n1` (centres unmarked) [Example 297, N-{1-[2-(4-chloro-3-nitrophenylamino)-6-propylpyrimidin-4-yl]pyrrolidin-3-yl}acetamide] are within 1.5-fold of each other in EC50: 0.039 nM for the first, 0.028 nM for the second.

Compared with `CCCc1cc(N2CCC(NC(C)=O)C2)nc(Nc2cccc(C(F)(F)F)c2)n1` (centres unmarked) [Example 301], `CCCc1cc(N2CC[C@H](N)C2)nc(Nc2cccc(C(F)(F)F)c2)n1` [Example 347, (S)-4-(3-aminopyrrolidin-1-yl)-6-propyl-N-[3-(trifluoromethyl)phenyl]pyrimidin-2-amine dihydrochloride] is 3.7-fold lower in EC50: 0.11 nM for the first, 0.03 nM for the second. The second is the more potent here.

First: CCCc1cc(N2CCC(NC(C)=O)C2)nc(Nc2cc(Cl)ccc2C)n1 (centres unmarked) [Example 303]
Second: CCCc1cc(N2CCC(NC(C)=O)C2)nc(Nc2ccc(C)c(Cl)c2)n1 (centres unmarked) [Example 304]
The EC50 of the first is 1.7-fold higher: 0.12 nM for the first, 0.07 nM for the second. The second is the more potent here.

Going from `CCCc1cc(N2CCC(NC(C)=O)C2)nc(Nc2cccc(SC)c2)n1` (centres unmarked) [Example 305] to `CCCc1cc(N2CC[C@H](N)C2)nc(Nc2cccc(SC)c2)n1` [Example 345, (S)-4-(3-aminopyrrolidin-1-yl)-N-[3-(methylthio)phenyl]-6-propylpyrimidin-2-amine dihydrochloride], the EC50 falls from 0.18 nM to 0.062 nM (2.9-fold).

First: CCCc1cc(N2CCC(NC(C)=O)C2)nc(Nc2ccc3[nH]c(C(F)(F)F)nc3c2)n1 (centres unmarked) [Example 307]
Second: CCCc1cc(N2CCC(NC(C)=O)C2)nc(Nc2ccc(F)c(N)c2)n1 (centres unmarked) [Example 312]
The EC50 of the first is 10-fold higher: 0.24 nM for the first, 0.023 nM for the second.

First: CCCc1cc(N2CCC(NC(C)=O)C2)nc(Nc2ccc3c(C)cc(=O)oc3c2)n1 (centres unmarked) [Example 309]
Second: CCCc1cc(N2CCC[C@H]2C)nc(Nc2ccc3c(C)cc(=O)oc3c2)n1 [Example 317]
The EC50 of the first is 1.8-fold lower: 0.076 nM for the first, 0.14 nM for the second. The first is the more potent here.

Going from `CCCc1cc(N2CCC(NC(C)=O)C2)nc(Nc2cnc3ccccc3c2)n1` (centres unmarked) [Example 310] to `CCCc1cc(N2CCC(NC(C)=O)C2)nc(Nc2ccc(N)c(C#N)c2)n1` (centres unmarked) [Example 311], the EC50 falls from 0.37 nM to 0.019 nM (19-fold). The second is the more potent here.

First: CCCc1cc(N2CCC[C@H]2C)nc(Nc2ccc(Cl)c([N+](=O)[O-])c2)n1 [Example 313, (R)—N-(4-chloro-3-nitrophenyl)-4-(2-methylpyrrolidin-1-yl)-6-propylpyrimidin-2-amine]
Second: CCCc1cc(N2CCC[C@H]2C)nc(Nc2ccc(F)c([N+](=O)[O-])c2)n1 [Example 320, (R)—N-(4-fluoro-3-nitrophenyl)-4-(2-methylpyrrolidin-1-yl)-6-propylpyrimidin-2-amine]
The EC50 of the first is 1.9-fold higher: 0.078 nM for the first, 0.041 nM for the second.

Going from `CCCc1cc(N2CCC[C@H]2C)nc(Nc2cccc(SC)c2)n1` [Example 314] to `CCCc1cc(N2CCC[C@H]2C)nc(Nc2cccc([N+](=O)[O-])c2)n1` [Example 319], the EC50 falls from 0.18 nM to 0.08 nM (2.2-fold).

Compared with `CCCc1cc(N2CCC[C@H]2C)nc(Nc2ccc3cc[nH]c3c2)n1` [Example 315], `CCCc1cc(N2CC[C@H](N)C2)nc(Nc2ccc3cc[nH]c3c2)n1` [Example 346] is 2-fold lower in EC50: 0.028 nM for the first, 0.014 nM for the second. The second is the more potent here.

`CCCc1cc(N2CCC[C@H]2C)nc(Nc2cccc(C(F)(F)F)c2)n1` [Example 316] and `CCCc1cc(N2CCC[C@H]2C)nc(Nc2ccc(F)c(C(F)(F)F)c2)n1` [Example 322] are within 1.5-fold of each other in EC50: 0.21 nM for the first, 0.15 nM for the second.

Compared with `CCCc1cc(N2CCC[C@H]2C)nc(Nc2ccc(C)c(Cl)c2)n1` [Example 318], `CCCc1cc(N2CCC[C@H]2C)nc(Nc2ccc(C)c(N)c2)n1` [Example 334] is 1.9-fold lower in EC50: 0.16 nM for the first, 0.085 nM for the second.

Going from `CCCc1cc(N2CCC[C@H]2C)nc(Nc2ccc(C)c([N+](=O)[O-])c2)n1` [Example 321, (R)—N-(4-methyl-3-nitrophenyl)-4-(2-methylpyrrolidin-1-yl)-6-propylpyrimidin-2-amine] to `CCCc1cc(N2CCC[C@H]2C)nc(Nc2ccc(N)c([N+](=O)[O-])c2)n1` [Example 328, (R)—N^1-[4-(2-methylpyrrolidin-1-yl)-6-propylpyrimidin-2-yl]-3-nitrobenzene-1,4-diamine], the EC50 falls from 0.044 nM to 0.017 nM (2.6-fold). The second is the more potent here.

`CCCc1cc(N2CCC[C@H]2C)nc(Nc2ccc(N)c(C(F)(F)F)c2)n1` [Example 323, (R)—N^1-[4-(2-methylpyrrolidin-1-yl)-6-propylpyrimidin-2-yl]-3-(trifluoromethyl)benzene-1,4-diamine] and `CCCc1cc(N2CCC[C@H]2C)nc(Nc2ccc(F)c(N)c2)n1` [Example 333] are within 1.5-fold of each other in EC50: 0.027 nM for the first, 0.024 nM for the second.

First: CCCc1cc(N2CCC[C@H]2C)nc(Nc2ccc(F)c(C#N)c2)n1 [Example 325]
Second: CCCc1cc(N2CCC[C@H]2C)nc(Nc2ccc(C)c(C#N)c2)n1 [Example 326]
The EC50 of the first is 3-fold higher: 0.085 nM for the first, 0.028 nM for the second.

Going from `CCCc1cc(N2CCC[C@H]2C)nc(Nc2ccc(N)c(C#N)c2)n1` [Example 327] to `CCCc1cc(N2CCC[C@H]2C)nc(Nc2ccc(Cl)c(N)c2)n1` [Example 332], the EC50 rises from 0.025 nM to 0.046 nM (1.8-fold). The first is the more potent here.

`CCCc1cc(N2CCC[C@H]2C)nc(Nc2ccc3c(c2)N(C(C)=O)CC3)n1` [Example 329] and `CCCc1cc(N2CCC[C@H]2C)nc(Nc2ccc(OC)c(N)c2)n1` [Example 331] are within 1.5-fold of each other in EC50: 0.18 nM for the first, 0.138 nM for the second.

`CCCCc1cc(N2CC[C@H](NC(C)=O)C2)nc(Nc2ccc(N)c([N+](=O)[O-])c2)n1` [Example 337] and `CCCCc1cc(N2CC[C@H](NC)C2)nc(Nc2ccc(N)c([N+](=O)[O-])c2)n1` [Example 338] are within 1.5-fold of each other in EC50: 0.0026 nM for the first, 0.0032 nM for the second.

Going from `CCCc1cc(N2CC[C@H](N)C2)nc(Nc2cc(N)cc(C(F)(F)F)c2)n1` [Example 342] to `CCCc1cc(N2CC[C@H](N)C2)nc(Nc2ccc(N)c(C(F)(F)F)c2)n1` [Example 352], the EC50 falls from 0.0055 nM to 0.0027 nM (2-fold). The second is the more potent here.

Compared with `CCCc1cc(N2CC[C@H](N)C2)nc(Nc2ccc(Cl)c([N+](=O)[O-])c2)n1` [Example 344, (S)-4-(3-aminopyrrolidin-1-yl)-N-(4-chloro-3-nitrophenyl)-6-propylpyrimidin-2-amine dihydrochloride], `CCCc1cc(N2CC[C@H](N)C2)nc(Nc2ccc(C)c([N+](=O)[O-])c2)n1` [Example 351, (S)-4-(3-aminopyrrolidin-1-yl)-N-(4-methyl-3-nitrophenyl)-6-propylpyrimidin-2-amine dihydrochloride] is 2.6-fold lower in EC50: 0.0092 nM for the first, 0.0035 nM for the second.

`CCCc1cc(N2CC[C@H](N)C2)nc(Nc2cc(Cl)ccc2C)n1` [Example 348, (S)-4-(3-aminopyrrolidin-1-yl)-N-(5-chloro-2-methylphenyl)-6-propylpyrimidin-2-amine dihydrochloride] and `CCCc1cc(N2CC[C@H](N)C2)nc(Nc2ccc(C)c(Cl)c2)n1` [Example 349, (S)-4-(3-aminopyrrolidin-1-yl)-N-(3-chloro-4-methylphenyl)-6-propylpyrimidin-2-amine dihydrochloride] are within 1.5-fold of each other in EC50: 0.019 nM for the first, 0.016 nM for the second.

Compared with `CCCc1cc(N2CC[C@H](N)C2)nc(Nc2cccc([N+](=O)[O-])c2)n1` [Example 350, (S)-4-(3-aminopyrrolidin-1-yl)-N-(3-nitrophenyl)-6-propylpyrimidin-2-amine dihydrochloride], `CCCc1cc(N2CC[C@H](N)C2)nc(Nc2ccc(N)c([N+](=O)[O-])c2)n1` [Example 359] is 5.7-fold lower in EC50: 0.012 nM for the first, 0.0021 nM for the second.

Going from `CCCc1cc(N2CC[C@H](N)C2)nc(Nc2ccc(F)c(C#N)c2)n1` [Example 353, (S)-5-[4-(3-aminopyrrolidin-1-yl)-6-propylpyrimidin-2-ylamino]-2-fluorobenzonitrile dihydrochloride] to `CCCc1cc(N2CC[C@H](N)C2)nc(Nc2ccc(C)c(C#N)c2)n1` [Example 354, (S)-5-[4-(3-aminopyrrolidin-1-yl)-6-propylpyrimidin-2-ylamino]-2-methylbenzonitrile dihydrochloride], the EC50 falls from 0.01 nM to 0.003 nM (3.3-fold). The second is the more potent here.

Going from `CCCc1cc(N2CC[C@H](N)C2)nc(Nc2ccc(N)c(C#N)c2)n1` [Example 355] to `CCCc1cc(N2CC[C@H](N)C2)nc(Nc2ccc(C)c(N)c2)n1` [Example 369], the EC50 rises from 0.007 nM to 0.049 nM (7-fold).

Going from `CCCc1cc(N2CC[C@H](N)C2)nc(Nc2ccc(F)c(C(F)(F)F)c2)n1` [Example 357, (S)-4-(3-aminopyrrolidin-1-yl)-N-[4-fluoro-3-(trifluoromethyl)phenyl]-6-propylpyrimidin-2-amine dihydrochloride] to `CCCc1cc(N2CC[C@H](N)C2)nc(Nc2ccc(F)c(N)c2)n1` [Example 370, (S)—N^1-[4-(3-aminopyrrolidin-1-yl)-6-propylpyrimidin-2-yl]-4-fluorobenzene-1,3-diamine dihydrochloride], the EC50 rises from 0.0065 nM to 0.015 nM (2.3-fold). The first is the more potent here.

Going from `CCCc1cc(N2CC[C@H](N)C2)nc(Nc2ccc(F)c([N+](=O)[O-])c2)n1` [Example 358, (S)-4-(3-aminopyrrolidin-1-yl)-N-(4-fluoro-3-nitrophenyl)-6-propylpyrimidin-2-amine dihydrochloride] to `CCCc1cc(N2CC[C@H](NCC3CC3)C2)nc(Nc2ccc(Cl)c([N+](=O)[O-])c2)n1` [Example 372], the EC50 falls from 0.014 nM to 0.0046 nM (3-fold).

First: CCCc1cc(N2CCC[C@H]2COC)nc(Nc2cccc(N)c2)n1 [Example 364]
Second: CCCc1cc(N2CCC[C@H]2COC)nc(Nc2ccc(F)c(N)c2)n1 [Example 365]
The EC50 of the first is 4.5-fold higher: 0.122 nM for the first, 0.027 nM for the second. The second is the more potent here.

Going from `CCCc1cc(N2CCC[C@H]2COC)nc(Nc2ccc(C)c(N)c2)n1` [Example 366] to `CCCc1cc(N2CCC[C@H]2COC)nc(Nc2ccc(OC)c(N)c2)n1` [Example 367, (S)-4-methoxy-N^1-{4-[2-(methoxymethyl)pyrrolidin-1-yl]-6-propylpyrimidin-2-yl}benzene-1,3-diamine], the EC50 rises from 0.078 nM to 0.153 nM (2-fold).

`CCCc1cc(N2CCC[C@H]2COC)nc(Nc2ccc3c(c2)NCC3)n1` [Example 368] was tested, and the EC50 was 0.182 nM.

— US9890138B2, “Diaminopyrimidine derivatives and processes for the preparation thereof” (YUHAN CORPORATION, priority 2011, dated 2018)
